Measured values as given in patent US20010044437A1, “Methods for reducing uric acid levels” (priority 2000, published 2001).
Several values for one entry are separate records, joined by “and”; a condition that tells them apart may be missing. Equal entries are not always repeated.

Key:
serum uric acid [1] = assay: Serum uric acid after a single dose (tablet or suspension) in healthy human subjects (Example 33); type: in vivo; details: individual subjects
Procedure: Thirty six healthy human subjects are administered either […] or a suspension containing the noted amount of the compound of Example 3 after fasting for at least 8 hours. subjects are administered 200 mg of compound; twelve subjects are administered 400 mg of compound; and twelve subjects are administered 600 mg of compound. Blood was collected before subjects are given the compound (Day −1) and the day following administration (Day 2). Serum uric levels may be measured using standard automated procedures on a uricase peroxidase method. Serum uric acid levels are […] in mg/dL.

serum uric acid [2] = assay: Serum uric acid during 28-day once-daily oral dosing, placebo-controlled study in 48 subjects (Example 34); type: in vivo, human
Procedure: In another study, 48 subjects were divided into four groups, A, B, C and D, and administered the noted amount of the compound of Example 3. Each group was composed of 12 subjects of whom 9 received the compound and 3 received placebo. The non-placebo members of group A received 50 mg of compound, administered orally once a day for 28 days as a single 50 mg tablet. The non-placebo members of group B received 200 mg of compound administered orally once a day for 28 days as a single 200 mg tablet. The non-placebo members of group C received 500 mg of compound administered orally once a day for 28 days as two 50 mg tablets and two 200 mg tablets. The non-placebo members of group D received 800 mg of compound administered orally once a day for 28 days as four 200 mg tablets. The 3 placebo members of each group, received an amount of placebo, as a tablet, equivalent to the amount of test compound—50 mg placebo for group A, 200 mg placebo for group B, 500 mg placebo for group C and 800 mg placebo for group D. Each subject received a single dose of either compound or placebo for 28 days. The subjects were confined at the clinical site beginning the day before dose administration until 72 hours after the final dose administration on Day 28 and returned for an outpatient visit on Day 35.
Uric acid levels were measured prior to beginning the study (screening), on the day immediately prior to commencement of the study (day-1), and then as noted in the table. Hours indicates the time since the last dose was administered. For example, Day 7, 0 hour indicates the time the serum uric acid level at the time the dose was administered and Day 7, 2 hour indicates the uric acid level two hours after the adminstration that day. Further, the Day 30, 60 hour level is the serum uric acid level measured 60 hours (on Day 30) after the last dose was administered on Day 28. The uric acid levels are presented in mg/dL as a mean of all subjects in each group.

Question: For `O=C(O)Cn1cc(Cc2nc3c(F)c(F)cc(F)c3s2)c2ccccc21` [Example 3, 3-(4,5,7-Trifluorobenzothiazol-2-yl)methyl-indole-N-acetic Acid], which “% Reduction (Suspension)” value (serum uric acid [1]; 200 mg suspension, Day 2 vs Day-1) is on record?
Answer: 36% (3×) and 27% and 25% and −51% and 23% (2×) and 35% and 0% and 20% and 11%

Question: And the “Uric Acid Day-1 Suspension” value (serum uric acid [1]; 200 mg suspension, before administration (baseline))?
Answer: 5.0 mg/dL (2×) and 6.0 mg/dL and 5.3 mg/dL (2×) and 4.3 mg/dL and 5.2 mg/dL and 5.5 mg/dL and 4.7 mg/dL and 3.3 mg/dL and 6.3 mg/dL and 4.5 mg/dL

Question: And the “Uric Acid Day 2 (Suspension)” value (serum uric acid [1]; 200 mg suspension, day following administration)?
Answer: 3.2 mg/dL and 4.4 mg/dL and 4.0 mg/dL (3×) and 6.5 mg/dL and 3.6 mg/dL (2×) and 5.3 mg/dL and 2.1 mg/dL and 5.6 mg/dL and 2.9 mg/dL

Question: And the “% reduction (Tablet)” value (serum uric acid [1]; 200 mg tablet, Day 2 vs Day-1)?
Answer: 28% and 27% and 26% and −3% and 16% (2×) and 39% (2×) and −2% and 32% and 41% and −16%

Question: What about the “Uric Acid Day-1 Tablet” value (serum uric acid [1]; 200 mg tablet, before administration (baseline)) of the same compound?
Answer: 5.0 mg/dL and 6.3 mg/dL and 5.3 mg/dL and 5.8 mg/dL and 4.9 mg/dL (3×) and 6.2 mg/dL and 5.2 mg/dL and 5.7 mg/dL and 3.7 mg/dL and 5.1 mg/dL

Question: What about the “Uric Acid Day 2 (Tablet)” value (serum uric acid [1]; 200 mg tablet, day following administration) of the same compound?
Answer: 3.6 mg/dL and 4.6 mg/dL and 3.9 mg/dL (2×) and 6.0 mg/dL and 4.1 mg/dL (2×) and 3.8 mg/dL and 5.3 mg/dL and 2.2 mg/dL and 5.7 mg/dL and 3.1 mg/dL

Question: And the “% reduction” value (serum uric acid [1]; 400 mg, Day 2 vs Day-1)?
Answer: 47% and 5% and 67% and 9% and 49% and 43% and 2% and 36% and 45% and 51% and −13% and 24%

Question: What about the “Uric acid Day-1” value (serum uric acid [1]; 400 mg, before administration (baseline)) of the same compound?
Answer: 4.5 mg/dL and 4.3 mg/dL and 6.6 mg/dL and 5.3 mg/dL and 3.7 mg/dL and 5.6 mg/dL and 6.0 mg/dL and 4.7 mg/dL (2×) and 7.7 mg/dL and 6.2 mg/dL and 4.6 mg/dL

Question: What about the “Uric acid Day 2” value (serum uric acid [1]; 400 mg, day following administration) of the same compound?
Answer: 2.4 mg/dL and 4.1 mg/dL and 2.2 mg/dL and 4.8 mg/dL and 1.9 mg/dL and 3.2 mg/dL and 5.9 mg/dL and 3.0 mg/dL and 4.2 mg/dL and 2.3 mg/dL and 7.0 mg/dL and 3.5 mg/dL

Question: And the “% reduction” value (serum uric acid [1]; 600 mg, Day 2 vs Day-1)?
Answer: −6% and −44% and 45% and 55% and 42% and 2% and 57% and 47% and 37% and 58% and 50%

Question: And the “Uric acid Day-1” value (serum uric acid [1]; 600 mg, before administration (baseline))?
Answer: 4.7 mg/dL and 4.3 mg/dL and 5.5 mg/dL and 4.4 mg/dL (2×) and 5.9 mg/dL and 4.6 mg/dL and 3.5 mg/dL and 3.4 mg/dL and 3.0 mg/dL and 3.9 mg/dL

Question: What about the “Uric acid Day 2” value (serum uric acid [1]; 600 mg, day following administration) of the same compound?
Answer: 5.0 mg/dL and 33 mg/dL and 6.2 mg/dL and 3.0 mg/dL and 2.0 mg/dL and 3.4 mg/dL and 4.5 mg/dL and 1.5 mg/dL and 1.8 mg/dL and 1.9 mg/dL and 1.7 mg/dL and 2.2 mg/dL

Question: And the “Uric Acid Level (mean of all subjects in each group)” value (“Uric Acid Level” for short) (serum uric acid [2]; group A 50 mg orally once a day, Day 1 8 Hour)?
Answer: 3.94 mg/dL

Question: And the “Uric Acid Level” value (serum uric acid [2]; group A 50 mg orally once a day, Day 1 10 Hour)?
Answer: 3.87 mg/dL

Question: And the “Uric Acid Level” value (serum uric acid [2]; group A 50 mg orally once a day, Day 1 12 Hour)?
Answer: 3.89 mg/dL

Question: And the “Uric Acid Level” value (serum uric acid [2]; group A 50 mg orally once a day, Day 1 16 Hour)?
Answer: 3.98 mg/dL

Question: What about the “Uric Acid Level” value (serum uric acid [2]; group A 50 mg orally once a day, Day 1 24 Hour) of the same compound?
Answer: 4.19 mg/dL

Question: What about the “Uric Acid Level” value (serum uric acid [2]; group A 50 mg orally once a day, Day 3) of the same compound?
Answer: 3.62 mg/dL

Question: And the “Uric Acid Level” value (serum uric acid [2]; group A 50 mg orally once a day, Day 7 0 Hour)?
Answer: 3.36 mg/dL

Question: And the “Uric Acid Level” value (serum uric acid [2]; group A 50 mg orally once a day, Day 7 0.5 Hour)?
Answer: 3.33 mg/dL

Question: What about the “Uric Acid Level” value (serum uric acid [2]; group A 50 mg orally once a day, Day 7 1 Hour) of the same compound?
Answer: 3.28 mg/dL

Question: What about the “Uric Acid Level” value (serum uric acid [2]; group A 50 mg orally once a day, Day 7 2 Hour) of the same compound?
Answer: 3.14 mg/dL

Question: And the “Uric Acid Level” value (serum uric acid [2]; group A 50 mg orally once a day, Day 7 3 Hour)?
Answer: 3.03 mg/dL

Question: And the “Uric Acid Level” value (serum uric acid [2]; group A 50 mg orally once a day, Day 7 4 Hour)?
Answer: 2.99 mg/dL

Question: What about the “Uric Acid Level” value (serum uric acid [2]; group A 50 mg orally once a day, Day 7 6 Hour) of the same compound?
Answer: 3.30 mg/dL

Question: What about the “Uric Acid Level” value (serum uric acid [2]; group A 50 mg orally once a day, Day 7 8 Hour) of the same compound?
Answer: 3.34 mg/dL

Question: And the “Uric Acid Level” value (serum uric acid [2]; group A 50 mg orally once a day, Day 7 10 Hour)?
Answer: 3.36 mg/dL

Question: What about the “Uric Acid Level” value (serum uric acid [2]; group A 50 mg orally once a day, Day 7 12 Hour) of the same compound?
Answer: 3.26 mg/dL

Question: And the “Uric Acid Level” value (serum uric acid [2]; group A 50 mg orally once a day, Day 7 16 Hour)?
Answer: 3.07 mg/dL

Question: What about the “Uric Acid Level” value (serum uric acid [2]; group A 50 mg orally once a day, Day 7 24 Hour) of the same compound?
Answer: 3.48 mg/dL

Question: And the “Uric Acid Level” value (serum uric acid [2]; group A 50 mg orally once a day, Day 14 0 Hour)?
Answer: 3.51 mg/dL

Question: What about the “Uric Acid Level” value (serum uric acid [2]; group A 50 mg orally once a day, Day 14 0.5 Hour) of the same compound?
Answer: 3.43 mg/dL

Question: And the “Uric Acid Level” value (serum uric acid [2]; group A 50 mg orally once a day, Day 14 1 Hour)?
Answer: 3.41 mg/dL

Question: And the “Uric Acid Level” value (serum uric acid [2]; group A 50 mg orally once a day, Day 14 2 Hour)?
Answer: 3.37 mg/dL

Question: And the “Uric Acid Level” value (serum uric acid [2]; group A 50 mg orally once a day, Day 14 3 Hour)?
Answer: 3.19 mg/dL

Question: What about the “Uric Acid Level” value (serum uric acid [2]; group A 50 mg orally once a day, Day 14 4 Hour) of the same compound?
Answer: 3.17 mg/dL

Question: And the “Uric Acid Level” value (serum uric acid [2]; group A 50 mg orally once a day, Day 14 6 Hour)?
Answer: 3.38 mg/dL

Question: What about the “Uric Acid Level” value (serum uric acid [2]; group A 50 mg orally once a day, Day 14 8 Hour) of the same compound?
Answer: 3.34 mg/dL

Question: And the “Uric Acid Level” value (serum uric acid [2]; group A 50 mg orally once a day, Day 14 10 Hour)?
Answer: 3.24 mg/dL

Question: And the “Uric Acid Level” value (serum uric acid [2]; group B 200 mg orally once a day, Day 1 8 Hour)?
Answer: 3.37 mg/dL

Question: And the “Uric Acid Level” value (serum uric acid [2]; group B 200 mg orally once a day, Day 1 10 Hour)?
Answer: 3.16 mg/dL

Question: What about the “Uric Acid Level” value (serum uric acid [2]; group B 200 mg orally once a day, Day 1 12 Hour) of the same compound?
Answer: 3.12 mg/dL

Question: What about the “Uric Acid Level” value (serum uric acid [2]; group B 200 mg orally once a day, Day 1 16 Hour) of the same compound?
Answer: 3.01 mg/dL

Question: What about the “Uric Acid Level” value (serum uric acid [2]; group B 200 mg orally once a day, Day 1 24 Hour) of the same compound?
Answer: 3.64 mg/dL

Question: What about the “Uric Acid Level” value (serum uric acid [2]; group B 200 mg orally once a day, Day 3) of the same compound?
Answer: 2.94 mg/dL

Question: What about the “Uric Acid Level” value (serum uric acid [2]; group B 200 mg orally once a day, Day 7 0 Hour) of the same compound?
Answer: 2.86 mg/dL

Question: And the “Uric Acid Level” value (serum uric acid [2]; group B 200 mg orally once a day, Day 7 0.5 Hour)?
Answer: 2.79 mg/dL

Question: What about the “Uric Acid Level” value (serum uric acid [2]; group B 200 mg orally once a day, Day 7 1 Hour) of the same compound?
Answer: 2.74 mg/dL

Question: What about the “Uric Acid Level” value (serum uric acid [2]; group B 200 mg orally once a day, Day 7 2 Hour) of the same compound?
Answer: 2.61 mg/dL

Question: And the “Uric Acid Level” value (serum uric acid [2]; group B 200 mg orally once a day, Day 7 3 Hour)?
Answer: 2.50 mg/dL

Question: And the “Uric Acid Level” value (serum uric acid [2]; group B 200 mg orally once a day, Day 7 4 Hour)?
Answer: 2.47 mg/dL

Question: And the “Uric Acid Level” value (serum uric acid [2]; group B 200 mg orally once a day, Day 7 6 Hour)?
Answer: 2.72 mg/dL

Question: What about the “Uric Acid Level” value (serum uric acid [2]; group B 200 mg orally once a day, Day 7 8 Hour) of the same compound?
Answer: 2.54 mg/dL

Question: What about the “Uric Acid Level” value (serum uric acid [2]; group B 200 mg orally once a day, Day 7 10 Hour) of the same compound?
Answer: 2.53 mg/dL

Question: What about the “Uric Acid Level” value (serum uric acid [2]; group B 200 mg orally once a day, Day 7 12 Hour) of the same compound?
Answer: 2.44 mg/dL

Question: And the “Uric Acid Level” value (serum uric acid [2]; group B 200 mg orally once a day, Day 7 16 Hour)?
Answer: 2.43 mg/dL
